Where two headings read alike, the source gives them in different places.

For 18 compounds, pest or weed control results are on record in patent US20150322051A1, “Macrocyclic picolinamides as fungicides” (Dow AgroSciences LLC, priority 2014, published 2015).

For test [1], the system named is Puccinia triticina; synonym: Puccinia recondita f. sp. tritici (PUCCRT). The test is described as follows: Wheat brown rust (PUCCRT) whole-plant fungicidal test. It counts as in vivo. The note with it: topical; for pest or weed control at 100 ppm: high volume application; for pest or weed control at 121.5 g/ha: low volume (track spray) application, 121.5 g/H. As to the method:
All fungicides were evaluated using the aforementioned method for their activity vs. all target diseases, unless stated otherwise. Wheat leaf blotch and brown rust activity were also evaluated using track spray applications, in which case the fungicides were formulated as EC formulations, containing 0.1% Trycol 5941 in the spray solutions. Wheat plants (variety Yuma) were grown from seed in a greenhouse in 50% mineral soil/50% soil-less Metro mix until the first leaf was fully emerged, with 7-10 seedlings per pot. These plants were inoculated with an aqueous spore suspension of Septoria tritici either prior to or after fungicide treatments. After inoculation the plants were kept in 100% relative humidity (one day in a dark dew chamber followed by two to three days in a lighted dew chamber at 20° C.) to permit spores to germinate and infect the leaf. The plants were then transferred to a greenhouse set at 20° C. for disease to develop. When disease symptoms were fully expressed on the 1st leaves of untreated plants, infection levels were assessed on a scale of 0 to 100 percent disease severity. Percent disease control was calculated using the ratio of disease severity on treated plants relative to untreated plants. Wheat plants (variety Yuma) were grown from seed in a greenhouse in 50% mineral soil/50% soil-less Metro mix until the first leaf was fully emerged, with 7-10 seedlings per pot. These plants were inoculated with an aqueous spore suspension of Puccinia triticina either prior to or after fungicide treatments. […] The plants were then transferred to a greenhouse set at 24° C. for disease to develop. Fungicide formulation, application and disease assessment followed the procedures as described in the Example A.

Test [2] has as its system Mycosphaerella graminicola; anamorph: Septoria tritici (SEPTTR). The experiment in a line: Leaf blotch of wheat (SEPTTR) whole-plant fungicidal test. Conditions: Zymoseptoria tritici, topical; for pest or weed control at 100 ppm: high volume application; for pest or weed control at 121.5 g/ha: low volume (track spray) application, 121.5 g/H. It counts as in vivo. As to the method:
All fungicides were evaluated using the aforementioned method for their activity vs. all target diseases, unless stated otherwise. Wheat leaf blotch and brown rust activity were also evaluated using track spray applications, in which case the fungicides were formulated as EC formulations, containing 0.1% Trycol 5941 in the spray solutions. Wheat plants (variety Yuma) were grown from seed in a greenhouse in 50% mineral soil/50% soil-less Metro mix until the first leaf was fully emerged, with 7-10 seedlings per pot. These plants were inoculated with an aqueous spore suspension of Septoria tritici either prior to or after fungicide treatments. After inoculation the plants were kept in 100% relative humidity (one day in a dark dew chamber followed by two to three days in a lighted dew chamber at 20° C.) to permit spores to germinate and infect the leaf. The plants were then transferred to a greenhouse set at 20° C. for disease to develop. When disease symptoms were fully expressed on the 1st leaves of untreated plants, infection levels were assessed on a scale of 0 to 100 percent disease severity. Percent disease control was calculated using the ratio of disease severity on treated plants relative to untreated plants.

[3] abbreviates: 24 h, 1 Day Protectant, read-out: High Volume activity at 100 ppm PUCCRT 1DP (% disease control rating).
Setting [4] is: 24 h, 1 Day Protectant, read-out: Low Volume activity at 121.5 g/H PUCCRT 1DP (% disease control rating).
Where [5] appears, read: 72 h, 3 Day Curative, read-out: High Volume activity at 100 ppm PUCCRT 3DC (% disease control rating).
The mark [6] stands for this setting: 72 h, 3 Day Curative, read-out: Low Volume activity at 121.5 g/H PUCCRT 3DC (% disease control rating).
The mark [7] stands for this setting: 24 h, 1 Day Protectant, read-out: High Volume activity at 100 ppm SEPTTR 1DP (% disease control rating).
Setting [8] is: 24 h, 1 Day Protectant, read-out: Low Volume activity at 121.5 g/H SEPTTR 1DP (% disease control rating).
Where [9] appears, read: 72 h, 3 Day Curative, read-out: High Volume activity at 100 ppm SEPTTR 3DC (% disease control rating).
Where [10] appears, read: 72 h, 3 Day Curative, read-out: Low Volume activity at 121.5 g/H SEPTTR 3DC (% disease control rating).

As to `CCCC[C@@H]1[C@@H](Cc2ccccc2)CCC[C@H](NC(=O)c2nccc(OC)c2OC(C)=O)C(=O)O[C@H]1C` [Compound 1, 2-(((3S,7R,8R,9S)-7-benzyl-8-butyl-9-methyl-2-oxooxonan-3-yl)carbamoyl)-4-methoxypyridin-3-yl acetate], the pest or weed control at 100 ppm in test [1] (setting [3]), in test [1] (setting [5]), in test [2] (setting [7]) and in test [2] (setting [9]) was greater than 70% each time. Besides, the pest or weed control at 121.5 g/ha is greater than 70% in test [1] (setting [4]), less than 70% in test [1] (setting [6]), greater than 70% in test [2] (setting [8]) and greater than 70% in test [2] (setting [10]).

In the case of `CCCC[C@@H]1[C@@H](Cc2ccccc2)CCC[C@H](NC(=O)c2nccc(OC)c2OCOC(C)=O)C(=O)O[C@H]1C` [Compound 2, ((2-(((3S,7R,8R,9S)-7-benzyl-8-butyl-9-methyl-2-oxooxonan-3-yl)carbamoyl)-4-methoxypyridin-3-yl)oxy)methyl acetate], the pest or weed control at 100 ppm in test [1] (setting [3]), in test [1] (setting [5]), in test [2] (setting [7]) and in test [2] (setting [9]) was greater than 70% each time. Further, the pest or weed control at 121.5 g/ha is greater than 70% in test [1] (setting [4]), less than 70% in test [1] (setting [6]), greater than 70% in test [2] (setting [8]) and greater than 70% in test [2] (setting [10]).

For the compound `COc1ccnc(C(=O)N[C@H]2CCC[C@H](CCC(C)C)[C@@H](Cc3ccccc3)[C@H](C)OC2=O)c1OC(C)=O` [Compound 4], the pest or weed control at 121.5 g/ha in test [1] (setting [4]) was greater than 70%; in test [1] (setting [6]) it was less than 70%; in test [2] (setting [8]), greater than 70%; in test [2] (setting [10]) it was greater than 70%.

For `COc1ccnc(C(=O)N[C@H]2CCC[C@H](Cc3ccccc3)[C@@H](Cc3ccccc3)[C@H](C)OC2=O)c1OC(C)=O` [Compound 5], the pest or weed control at 121.5 g/ha in test [1] (setting [4]), in test [1] (setting [6]), in test [2] (setting [8]) and in test [2] (setting [10]) was greater than 70% throughout.

`COc1ccnc(C(=O)N[C@H]2CCC[C@H](Cc3ccccc3)[C@@H](Cc3ccccc3)[C@H](C)OC2=O)c1OCOC(C)=O` [Compound 6]: the pest or weed control at 121.5 g/ha in test [1] (setting [4]), in test [1] (setting [6]), in test [2] (setting [8]) and in test [2] (setting [10]) was greater than 70% throughout.

In the case of `COc1ccnc(C(=O)N[C@H]2CCC[C@H](Cc3ccccc3)[C@@H](Cc3ccccc3)[C@H](C)OC2=O)c1OCOC(=O)C(C)C` [Compound 7, ((2-(((3S,7R,8R,9S)-7,8-dibenzyl-9-methyl-2-oxooxonan-3-yl)carbamoyl)-4-methoxypyridin-3-yl)oxy)methyl isobutyrate], the pest or weed control at 121.5 g/ha in test [1] (setting [4]), in test [1] (setting [6]), in test [2] (setting [8]) and in test [2] (setting [10]) was greater than 70% throughout.

For the compound `CCOCC(=O)OCOc1c(OC)ccnc1C(=O)N[C@H]1CCC[C@H](Cc2ccccc2)[C@@H](Cc2ccccc2)[C@H](C)OC1=O` [Compound 8, ((2-(((3S,7R,8R,9S)-7,8-dibenzyl-9-methyl-2-oxooxonan-3-yl)carbamoyl)-4-methoxypyridin-3-yl)oxy)methyl 2-ethoxyacetate], the pest or weed control at 121.5 g/ha in test [1] (setting [4]) was greater than 70%; in test [1] (setting [6]) it was less than 70%; in test [2] (setting [8]), greater than 70%; in test [2] (setting [10]), greater than 70%.

Consider `COc1ccnc(C(=O)N[C@H]2CCC[C@H](Cc3ccccc3)[C@@H](C3CCCC3)[C@H](C)OC2=O)c1OC(C)=O` [Compound 9], for which the pest or weed control at 121.5 g/ha in test [1] (setting [4]) is greater than 70%; in test [1] (setting [6]) it was less than 70%; in test [2] (setting [8]) it was greater than 70%; in test [2] (setting [10]) it was greater than 70%.

In the case of `COc1ccnc(C(=O)N[C@H]2CCC[C@H](Cc3ccccc3)[C@@H](C3CCCC3)[C@H](C)OC2=O)c1OCOC(C)=O` [Compound 10], the pest or weed control at 121.5 g/ha in test [1] (setting [4]), in test [1] (setting [6]), in test [2] (setting [8]) and in test [2] (setting [10]) was greater than 70% throughout.

Consider `COc1ccnc(C(=O)N[C@H]2CCC[C@H](Cc3ccc(Cl)cc3)[C@@H](CC(C)C)[C@H](C)OC2=O)c1OCOC(C)=O` [Compound 12], for which the pest or weed control at 121.5 g/ha in test [1] (setting [4]) was greater than 70%; in test [1] (setting [6]), less than 70%; in test [2] (setting [8]) it was greater than 70%; in test [2] (setting [10]), greater than 70%.

Turning to `COc1ccnc(C(=O)N[C@H]2CCC[C@H](Cc3ccc(Cl)cc3)[C@@H](CC(C)C)[C@H](C)OC2=O)c1OC(C)=O` [Compound 13], the pest or weed control at 121.5 g/ha in test [1] (setting [4]) is greater than 70%; in test [1] (setting [6]), less than 70%; in test [2] (setting [8]), greater than 70%; in test [2] (setting [10]), greater than 70%.

`COc1ccnc(C(=O)N[C@H]2CCC[C@H](Cc3ccccc3)[C@@H](CCc3ccccc3)[C@H](C)OC2=O)c1OCOC(C)=O` [Compound 15]: the pest or weed control at 121.5 g/ha in test [1] (setting [4]) is greater than 70%; in test [1] (setting [6]), less than 70%; in test [2] (setting [8]), greater than 70%; in test [2] (setting [10]), greater than 70%.

Consider `CCOCC(=O)OCOc1c(OC)ccnc1C(=O)N[C@H]1CCC[C@H](Cc2ccccc2)[C@@H](CCc2ccccc2)[C@H](C)OC1=O` [Compound 16], for which the pest or weed control at 121.5 g/ha in test [1] (setting [4]), in test [1] (setting [6]), in test [2] (setting [8]) and in test [2] (setting [10]) was greater than 70% throughout.

As for `COc1ccnc(C(=O)N[C@H]2CCC[C@H](Cc3ccccc3)[C@@H](CCc3ccccc3)[C@H](C)OC2=O)c1OCOC(=O)C(C)C` [Compound 17], the pest or weed control at 121.5 g/ha was greater than 70% in test [1] (setting [4]), less than 70% in test [1] (setting [6]), greater than 70% in test [2] (setting [8]) and greater than 70% in test [2] (setting [10]).

For `COc1ccnc(C(=O)N[C@H]2CCC[C@H](Cc3ccccc3)[C@@H](CCc3ccccc3)[C@H](C)OC2=O)c1OC(C)=O` [Compound 18], the pest or weed control at 121.5 g/ha is less than 70% in test [1] (setting [4]), less than 70% in test [1] (setting [6]), greater than 70% in test [2] (setting [8]) and greater than 70% in test [2] (setting [10]).

Turning to `CCOCC(=O)OCOc1c(OC)ccnc1C(=O)N[C@H]1CCC[C@H](Cc2ccc(Cl)cc2)[C@@H](Cc2ccccc2)[C@H](C)OC1=O` [Compound 20], the pest or weed control at 121.5 g/ha in test [1] (setting [4]) was greater than 70%; in test [1] (setting [6]), greater than 70%; in test [2] (setting [8]) it was greater than 70%; in test [2] (setting [10]) it was less than 70%.

As to `COc1ccnc(C(=O)N[C@H]2CCC[C@H](Cc3ccc(Cl)cc3)[C@@H](Cc3ccccc3)[C@H](C)OC2=O)c1OC(C)=O` [Compound 21], the pest or weed control at 121.5 g/ha is greater than 70% in test [1] (setting [4]), less than 70% in test [1] (setting [6]), greater than 70% in test [2] (setting [8]) and less than 70% in test [2] (setting [10]).

Regarding `COc1ccnc(C(=O)N[C@H]2CCC[C@H](Cc3ccc(C(F)(F)F)cc3)[C@@H](CC(C)C)[C@H](C)OC2=O)c1OC(C)=O` [Compound 22], the pest or weed control at 121.5 g/ha was greater than 70% in test [1] (setting [4]), less than 70% in test [1] (setting [6]), greater than 70% in test [2] (setting [8]) and less than 70% in test [2] (setting [10]).
